Experimental data from article PMC4679714, “Influence of a novel, versatile bifunctional chelator on theranostic properties of a minigastrin analogue” (EJNMMI Research, 2015).
Square brackets hold non-standard residues; d marks the D form. Peptide text beside a SMILES is read from it. * marks the point of attachment. X1 = O=C(O)CN1CCN(CC(=O)O)CC(CCCCCCCCCC(=O)*)(N(CC(=O)O)CC(=O)O)C1

Assays:
[1] = parameters: method as in doi:10.1002/ejic.201201108; conditions: cited from earlier work
human CCK2 receptor = target: T1, human CCK2 receptor (Homo sapiens, UniProt P32239); test: Receptor binding affinity (IC50), displacement of 177Lu-labelled CP04 from CCK2+ cell membranes; conditions: radioligand 177Lu-labelled CP04, 1 h at 37 °C
T1 construct: expressed in transfected cells; host or cells: A431-309CCK2R (A431 cells transfected with CCK2R); membranes released by hypoosmotic lysis
T1 sequence (P32239 1-447): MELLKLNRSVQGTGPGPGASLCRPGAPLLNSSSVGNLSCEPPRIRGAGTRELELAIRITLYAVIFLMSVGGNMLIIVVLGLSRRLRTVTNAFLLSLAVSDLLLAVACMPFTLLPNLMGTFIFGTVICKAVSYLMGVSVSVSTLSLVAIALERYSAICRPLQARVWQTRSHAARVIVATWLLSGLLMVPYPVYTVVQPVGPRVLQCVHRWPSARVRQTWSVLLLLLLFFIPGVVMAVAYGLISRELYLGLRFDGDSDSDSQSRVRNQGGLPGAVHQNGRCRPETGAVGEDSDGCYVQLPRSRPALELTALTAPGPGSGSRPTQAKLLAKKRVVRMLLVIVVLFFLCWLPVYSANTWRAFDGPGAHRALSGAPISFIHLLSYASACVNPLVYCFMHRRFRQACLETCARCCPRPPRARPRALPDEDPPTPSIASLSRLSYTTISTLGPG
Experimental: A human transfected cell line was used with two different expression properties of the cholecystokinin (CCK) receptor: CCK2+ (A431-309CCK2R; receptor-positive cells) and CCK2− (A431-609; mock transfected control cells) cells.
In vitro binding affinities of AAZTA-MG were determined by using CCK2+ cell membranes and ^177Lu-labelled CP04 (a minigastrin analogue with high affinity to the CCK2 receptor) as radioligand incubated with increasing concentrations of the competitor. As competitor AAZTA-MG and [^natLu]- and [^natGa]-AAZTA-MG were used. The latter were prepared by incubating 10 μg AAZTA-MG with a tenfold molar excess of Lu-chloride in ascorbic acid buffer and 100 μl Ga-bromide in sodium acetate buffer for 10 min, respectively.
The 96-well plates (MulitScreen Filter Plates, HTS) were washed with 250 μL 10 mM TRIS buffered saline (pH 7.3). CCK2 cells were diluted in 20 mM HEPES buffer containing […] MgCl2—in this hypoosmotic solution the cells were cracked releasing free membranes.

Row | Compound | Stability constant (logK) for Ga^3+ [1] | Stability constant (logK) for In^3+ [1] | other results
1 | O=C(O)CN1CCN(CC(=O)O)CCN(CC(=O)O)CCN(CC(=O)O)CC1 [^68Ga-DOTA, 1,4,7,10-tetraazacyclododecane-1,4,7,10-tetraacetic acid, metal not drawn] | 21.3 | 23.9 | –
2 | CC1(N(CC(=O)O)CC(=O)O)CN(CC(=O)O)CCN(CC(=O)O)C1 [AAZTA, 6-[Bis(carboxymethyl)amino]-1,4-bis(carboxymethyl)-6-methyl-1,4-diazepane] | 22.18 | 29.58 | –
3 | CSCC[C@H](NC(=O)[C@H](Cc1c[nH]c2ccccc12)NC(=O)CNC(=O)[C@H](Cc1ccc(O)cc1)NC(=O)[C@H](C)NC(=O)[C@@H](CCC(=O)O)NC(=O)CCCCCCCCCC1(N(CC(=O)O)CC(=O)O)CN(CC(=O)O)CCN(CC(=O)O)C1)C(=O)N[C@@H](CC(=O)O)C(=O)N[C@@H](Cc1ccccc1)C(N)=O [[^natGa]AAZTA-MG, metal not drawn] (X1-[dE]AYGWMDF-NH2) | – | – | IC50 (human CCK2 receptor; listed as [^natGa]-AAZTA-MG): 8.18 ± 3.16 nM
4 | CSCC[C@H](NC(=O)[C@H](Cc1c[nH]c2ccccc12)NC(=O)CNC(=O)[C@H](Cc1ccc(O)cc1)NC(=O)[C@H](C)NC(=O)[C@@H](CCC(=O)O)NC(=O)CCCCCCCCCC1(N(CC(=O)O)CC(=O)O)CN(CC(=O)O)CCN(CC(=O)O)C1)C(=O)N[C@@H](CC(=O)O)C(=O)N[C@@H](Cc1ccccc1)C(N)=O [[^natLu]AAZTA-MG, metal not drawn] (X1-[dE]AYGWMDF-NH2) | – | – | IC50 (human CCK2 receptor; listed as [^natLu]): 9.44 ± 4.57 nM
5 | CSCC[C@H](NC(=O)[C@H](Cc1c[nH]c2ccccc12)NC(=O)CNC(=O)[C@H](Cc1ccc(O)cc1)NC(=O)[C@H](C)NC(=O)[C@@H](CCC(=O)O)NC(=O)CCCCCCCCCC1(N(CC(=O)O)CC(=O)O)CN(CC(=O)O)CCN(CC(=O)O)C1)C(=O)N[C@@H](CC(=O)O)C(=O)N[C@@H](Cc1ccccc1)C(N)=O [AAZTA-MG, [AAZTA^0, D-Glu^1, desGlu^2–6]-minigastrin] (X1-[dE]AYGWMDF-NH2) | – | – | IC50 (human CCK2 receptor): 10 nM
